Here are results for 24 compounds from patent publication US6506766B1 (Abbott Laboratories, priority 1998, dated 2003).

Bounds are passed on as bounds.

Assay [1] deals with T1, human glucocorticoid receptor-α [GRX] isoform (Homo sapiens, UniProt P04150).
T1 construct: host or cells: insect SF21 cells (baculovirus)
T1 sequence (P04150 1-777): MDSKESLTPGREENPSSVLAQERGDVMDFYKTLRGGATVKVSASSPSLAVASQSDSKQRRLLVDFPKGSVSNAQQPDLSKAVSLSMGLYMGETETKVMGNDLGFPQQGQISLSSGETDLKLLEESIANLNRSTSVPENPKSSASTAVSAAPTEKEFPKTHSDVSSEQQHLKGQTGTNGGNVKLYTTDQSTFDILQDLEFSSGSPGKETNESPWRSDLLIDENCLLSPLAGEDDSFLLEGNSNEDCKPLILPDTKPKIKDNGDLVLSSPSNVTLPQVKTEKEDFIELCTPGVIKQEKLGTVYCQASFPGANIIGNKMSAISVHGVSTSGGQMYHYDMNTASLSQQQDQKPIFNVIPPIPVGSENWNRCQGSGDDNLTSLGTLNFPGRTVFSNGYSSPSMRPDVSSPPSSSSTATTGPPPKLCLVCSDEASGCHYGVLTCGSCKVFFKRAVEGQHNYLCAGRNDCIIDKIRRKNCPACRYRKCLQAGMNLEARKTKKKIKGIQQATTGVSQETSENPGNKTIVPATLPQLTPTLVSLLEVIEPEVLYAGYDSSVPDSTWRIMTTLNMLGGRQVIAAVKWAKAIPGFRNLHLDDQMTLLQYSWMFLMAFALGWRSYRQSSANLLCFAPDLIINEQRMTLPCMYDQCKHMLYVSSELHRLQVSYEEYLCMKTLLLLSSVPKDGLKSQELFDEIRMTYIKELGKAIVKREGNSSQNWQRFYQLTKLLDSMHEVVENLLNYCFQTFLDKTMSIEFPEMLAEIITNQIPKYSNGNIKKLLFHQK
Briefly: Radioligand binding with human glucocorticoid receptor cytosol ([3H]-dexamethasone competition). To be noted: GRX cytosol expressed in insect SF21 cells, [3H]-Dex ~0.9 nM, 4° C. overnight; Ki by Cheng-Prusoff, KL ~[…]; read-out: Ki (nM) GR.

Assay [2] has as its target T2, human progesterone receptor-A [PRA] isoform (Homo sapiens, UniProt P06401).
T2 construct: host or cells: insect SF21 cells (baculovirus)
T2 sequence (P06401 1-769 isoform P06401-2): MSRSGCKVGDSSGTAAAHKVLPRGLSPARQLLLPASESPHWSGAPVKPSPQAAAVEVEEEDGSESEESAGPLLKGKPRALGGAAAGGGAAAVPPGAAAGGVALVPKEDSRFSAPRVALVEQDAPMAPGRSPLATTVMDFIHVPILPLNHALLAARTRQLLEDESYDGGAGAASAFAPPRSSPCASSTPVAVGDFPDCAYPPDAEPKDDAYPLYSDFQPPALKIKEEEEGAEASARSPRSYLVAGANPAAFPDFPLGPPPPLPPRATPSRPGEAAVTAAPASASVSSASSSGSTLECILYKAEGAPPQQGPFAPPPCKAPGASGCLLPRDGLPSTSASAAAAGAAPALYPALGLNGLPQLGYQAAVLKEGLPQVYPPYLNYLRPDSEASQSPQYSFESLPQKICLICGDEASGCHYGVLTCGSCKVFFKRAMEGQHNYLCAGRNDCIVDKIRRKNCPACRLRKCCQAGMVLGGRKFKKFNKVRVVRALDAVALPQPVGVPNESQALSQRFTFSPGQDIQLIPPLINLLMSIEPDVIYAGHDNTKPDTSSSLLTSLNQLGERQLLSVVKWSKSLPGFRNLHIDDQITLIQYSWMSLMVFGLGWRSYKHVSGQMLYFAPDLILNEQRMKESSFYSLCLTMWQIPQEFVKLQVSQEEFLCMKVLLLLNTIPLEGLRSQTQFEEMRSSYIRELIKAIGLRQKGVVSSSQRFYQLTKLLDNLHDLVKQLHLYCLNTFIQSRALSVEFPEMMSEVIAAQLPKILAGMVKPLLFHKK
Briefly: Radioligand binding with human progesterone receptor cytosol ([3H]-progesterone competition). To be noted: PRA cytosol expressed in insect SF21 cells, [3H]Prog ~0.8 nM, 4° C. overnight; Ki by Cheng-Prusoff, KL ~4.5 nM; read-out: Ki (nM) PR.
Method: Both receptor cDNAs were cloned into baculovirus expression vectors and expressed in insect SF21 cells.
Stock solutions (32 mM) of compounds were prepared in dimethylsulfoxide (DMSO), and 50× solutions of test compounds were prepared from the 32 mM solution with a 50:50 mixture of DMSO/ethanol. The 50× solution was then diluted with binding buffer that contained 10 mM Tri-HCl, 1.5 mM EDTA, 10% glycerol, 1 mM DTT, 20 mM sodium molybdate, pH 7.5 @4° C. 1% DMSO/ethanol was present in the binding assay.
For PR binding assays, [^3H]Prog (˜36,000 dpm (˜0.8 nM)), PRA cytosol (˜40 μg protein), test compounds and binding buffer were mixed in a total volume of 200 μL and incubated at 4° C at overnight in a plate shaker. Specific binding was defined as the difference between binding of [^3H]Prog in the absence and in the presence of 3 μM unlabelled Prog.
After an overnight incubation, 50 μL of hydroxyapatite (25% weight/volume) slurry were added to each well and plates were incubated for 10 min at 0° C. in a plate shaker. Plates were suctioned with a Millipore vacuum manifold and each well was rinsed with 300 μL of ice-cold binding buffer. A 250 μL aliquot of Packard Microscint-20 was added to each well and the wells were shaken at room temperature for 20 minutes. The amount of radioactivity was determined with a Packard TopCount plate reader.
The Ki of test compounds was determined using the Cheng-Prusoff equation Ki=IC50/(1+[L*]/[KL]) where L* is the concentration of radioligand and KL is the dissociation constant of the radioligand determined from saturation analysis.

With `COC(=O)CC1Oc2ccc(O)c(OC)c2-c2ccc3c(c21)C(C)=CC(C)(C)N3` (stereo not drawn) [Example 281, Methyl 2-[2,5-Dihydro-9-hydroxy-10-methoxy-2,2,4-trimethyl-1H-[1]benzopyrano[3,4-f]-5-quinoline]acetate], the Ki (as a rule, the dissociation constant of the complex between target and ligand, obtained from inhibition or displacement) in assay [1] is 0.84 nM; in assay [2], 526 nM.
For `C/C=C\CC1Oc2ccc(O)c(OC)c2-c2ccc3c(c21)C(C)=CC(C)(C)N3` (stereo not drawn) [Example 282, (Z)2,5-Dihydro-9-hydroxy-10-methoxy-2,2,4-trimethyl-5-(2-butenyl)-1H-[1]benzopyrano[3,4-f]quinoline] the same measures were 0.5 nM and 42 nM.
The matching figures for `COc1c(O)ccc2c1-c1ccc3c(c1C(CC=C(C)C)O2)C(C)=CC(C)(C)N3` (stereo not drawn) [Example 283, 2,5-Dihydro-9-hydroxy-10-methoxy-2,2,4-trimethyl-5-(3-methyl-2-butenyl)-1H-[1]benzopyrano[3,4-f]quinoline]: 1.1 nM and 60.4 nM.
For `COc1c(O)ccc2c1-c1ccc3c(c1[C@@H]([C@H]1C=CCCC1)O2)C(C)=CC(C)(C)N3` [Example 285] the same measures were 436 nM and 3760 nM.
As to `COc1c(O)ccc2c1-c1ccc3c(c1[C@@H]([C@@H]1C=CCC1)O2)C(C)=CC(C)(C)N3` [Example 286], the inhibition constant Ki worked out at 64 nM in assay [1] and 3030 nM in assay [2].
The matching figures for `COc1c(O)ccc2c1-c1ccc3c(c1[C@@H]([C@H]1C=CCC1)O2)C(C)=CC(C)(C)N3` [Example 287]: 346 nM and 3500 nM.
The matching figures for `C=C(C)CC1Oc2ccc(O)c(OC)c2-c2ccc3c(c21)C(C)=CC(C)(C)N3` (stereo not drawn) [Example 289, 2,5-Dihydro-9-hydroxy-10-methoxy-2,2,4-trimethyl-5-(2-methyl-3-propenyl)-1H-[1]benzopyrano[3,4-f]quinoline]: 0.73 nM and 260 nM.
As to `C=CCC1Oc2ccc(OC)c(OC)c2-c2ccc3c(c21)C(C)=CC(C)(C)N3` (stereo not drawn) [Example 290, 9,10-Dimethoxy-5-(3-propenyl)-2,2,4-trimethyl-1H-2,5-dihydro-[1]benzopyrano[3,4-f]quinoline], the Ki in assay [1] turned out to be 12.1 nM; in assay [2] it was 611 nM.
Take `C=CCC1Oc2ccc(OCC)c(OC)c2-c2ccc3c(c21)C(C)=CC(C)(C)N3` (stereo not drawn) [Example 292, 10-Methoxy-9-ethoxy-5-(3-propenyl)-2,2,4-trimethyl-1H-2,5-dihydro-[1]benzopyrano[3,4-f]quinoline]: the Ki came to 487 nM in assay [1] and 8340 nM in assay [2].
For `C#CCOc1ccc2c(c1OC)-c1ccc3c(c1C(CC=C)O2)C(C)=CC(C)(C)N3` (stereo not drawn) [Example 294, 10-Methoxy-9-(3-propynyloxy)-5-(3-propenyl)-2,2,4-trimethyl-1H-2,5-dihydro[1]benzopyrano[3,4-f]quinoline] the same measures were 13.8 nM and 1810 nM.
The matching figures for `C=CCC1Oc2ccc(OC(C)=O)c(OC)c2-c2ccc3c(c21)C(C)=CC(C)(C)N3` (stereo not drawn) [Example 295, 2,5-Dihydro-9-acetoxy-10-methoxy-2,2,4-trimethyl-5-(2-propenyl)-1H-[1]benzopyrano[3,4-f]quinoline]: 0.67 nM and 59.3 nM.
For the compound `C=CCC1Oc2ccc(OC(=O)CCC(=O)N(C)C)c(OC)c2-c2ccc3c(c21)C(C)=CC(C)(C)N3` (stereo not drawn) [Example 296, 2,5-Dihydro-9-(4-N,N-dimethylamino-4-oxo-butanoyloxy)-10-methoxy-2,2,4-trimethyl-5(2-propenyl)-1H-[1]benzopyrano[3,4-f]quinoline], the figures for the Ki in assay [1] and in assay [2] were 0.63 nM and 476 nM, respectively.
For `COc1ccc(Br)c2c1-c1ccc3c(c1C(C1C=CCCC1)O2)C(C)=CC(C)(C)N3` (stereo not drawn) [Example 297] the same measures were 4.7 nM and 4840 nM.
`C=CCC1Oc2c(Br)ccc(OC)c2-c2ccc3c(c21)C(C)=CC(C)(C)N3` (stereo not drawn) [Example 298, 10-Methoxy-7-bromo-5-(3-propenyl)-2,2,4-trimethyl-1H-2,5-dihydro-[1]benzopyrano[3,4-f]quinoline]: the Ki in assay [1] is 4.1 nM; in assay [2], not below 10000 nM.
For `COc1ccc(Br)c2c1-c1ccc3c(c1C(C1C=C(C)CCC1)O2)C(C)=CC(C)(C)N3` (stereo not drawn) [Example 299] the same measures were 5.4 nM and 2900 nM.
For `C=CCC1Oc2ccc(Br)c(OC)c2-c2ccc3c(c21)C(C)=CC(C)(C)N3` (stereo not drawn) [Example 300, 10-Methoxy-9-bromo-5-(3-propenyl)-2,2,4-trimethyl-1H-2,5-dihydro-[1]benzopyrano[3,4-f]quinoline] the same measures were 5.3 nM and 34.4 nM.
For `C=CCC1Oc2c(Br)cc(Br)c(OC)c2-c2ccc3c(c21)C(C)=CC(C)(C)N3` (stereo not drawn) [Example 301, 7,9-Dibromo-10-methoxy-5-(3-propenyl)-2,2,4-trimethyl-1H-2,5-dihydro[1]benzopyrano[3,4-f]quinoline] the same measures were 16 nM and 113 nM.
As for `COc1c(Br)cc(Br)c2c1-c1ccc3c(c1C(C1C=CCCC1)O2)C(C)=CC(C)(C)N3` (stereo not drawn) [Example 302, 7,9-Dibromo-5-[cyclohexen-3-yl]-10-methoxy-2,2,4-trimethyl-2,5-dihydro-1H-[1]benzopyrano[3,4-f]quinoline], the Ki came out at 5.9 nM in assay [1] and 99 nM in assay [2].
In the case of `COc1c(Br)cc(Br)c2c1-c1ccc3c(c1C(C1C=C(C)CCC1)O2)C(C)=CC(C)(C)N3` (stereo not drawn) [Example 303], the inhibition constant (Ki) in assay [1] was 4.9 nM; in assay [2], 58.5 nM.
For `C=CCC1Oc2c(C=C)ccc(OC)c2-c2ccc3c(c21)C(C)=CC(C)(C)N3` (stereo not drawn) [Example 304, 10-Methoxy-7-(2-ethenyl)-5-(3-propenyl)-2,2,4-trimethyl-1H-2,5-dihydro-[1]benzopyrano[3,4-f]quinoline] the same measures were 34.5 nM and 681 nM.
The matching figures for `C=CCC1Oc2c(C)ccc(OC)c2-c2ccc3c(c21)C(C)=CC(C)(C)N3` (stereo not drawn) [Example 305, 10-Methoxy-7-methyl-5-(3-propenyl)-2,2,4-trimethyl-1H-2,5-dihydro-[1]benzopyrano[3,4-f]quinoline]: 2 nM and 6920 nM.
For the compound `C=CCC1Oc2c(C(C)=O)ccc(OC)c2-c2ccc3c(c21)C(C)=CC(C)(C)N3` (stereo not drawn) [Example 306, 10-Methoxy-7-acetyl-5-(3-propenyl)-2,2,4-trimethyl-1H-2,5-dihydro-[1]benzopyrano[3,4-f]quinoline], the values for the Ki in assay [1] and in assay [2] were 717 nM and 4460 nM, respectively.
For `C=CCC1Oc2c(C)cc(C)c(OC)c2-c2ccc3c(c21)C(C)=CC(C)(C)N3` (stereo not drawn) [Example 308, 10-Methoxy-7-methyl-9-methyl-5-(3-propenyl)-2,2,4-trimethyl-1H-2,5-dihydro-[1]benzopyrano[3,4-f]quinoline] the same measures were 50.8 nM and 960 nM.
For `COc1cccc2c1-c1ccc3c(c1C(c1cccc(CCO)c1)O2)C(C)=CC(C)(C)N3` (stereo not drawn) [Example 314, 2,5-Dihydro-10-methoxy-5-(3-(2-hydroxyethyl)phenyl)-2,2,4-trimethyl-1H-[1]benzopyrano[3,4-f]quinoline] the same measures were 1.7 nM and not below 10000 nM.
